Data as given in BindingDB's records for doi:10.1021/jm0309194 (University of Innsbruck, 2003).
pIC50, pKi: −log10 of the molar value.

Key:
[1] = In vitro anticholinesterase activity against butyrylcholinesterase from torpedo californica
[2] = In vitro binding affinity was determined against butyrylcholinesterase from torpedo californica

SMILES	pIC50 [1]	pKi [2]
CN[C@H]1CC[C@@]2(C)[C@@H](CC[C@@H]3[C@@H]2CC[C@]2(C)[C@@H]([C@H](C)N(C)C(C)=O)CC[C@@H]32)C1 [N-Methyl-N-[1-((3S,5S,8R,9S,10S,13S,14S,17S)-10-methyl-13-(S)-methyl-3-methylamino-hexadecahydro-cyclopenta[a]phenanthren-17-yl)-ethyl]-acetamide]	4.78	5.07
C/C(=C\C(=O)N(C)[C@H]1CC[C@@]2(C)[C@@H](CC[C@@H]3[C@@H]2CC[C@]2(C)[C@@H]([C@H](C)N(C)C)CC[C@@H]32)C1)C(C)C [(E)-3,4-Dimethyl-pent-2-enoic acid [(3S,5S,8R,9S,10S,13S,14S,17S)-17-((S)-1-dimethylamino-ethyl)-10,13-dimethyl-hexadecahydro-cyclopenta[a]phenanthren-3-yl]-methyl-amide]	5.39	5.47
C/C=C(\C)C(=O)N[C@@H]1[C@H](OC(C)=O)[C@@H]2CC[C@@H]3[C@H](CC[C@]4(C)[C@@H]([C@H](C)N(C)C)CC[C@@H]34)[C@@]2(C)C[C@@H]1O [Acetic acid (1S,4S,6R,7R,10R,11S,12S,15S,16S)-17-((S)-1-dimethylamino-ethyl)-2-(S)-hydroxy-10,13-dimethyl-3-((E)-2-methyl-but-2-enoylamino)-hexadecahydro-cyclopenta[a]phenanthren-4-yl ester]	4.74	
C/C=C(\C)C(=O)N[C@@H]1[C@H](OC(C)=O)[C@@H]2CC[C@H]3C4=CC[C@H]([C@H](C)N(C)C)[C@@]4(C)CC[C@@H]3[C@@]2(C)C[C@@H]1O [Acetic acid (2S,3S,4R,5R,8R,9S,10R,13R,17S)-17-((S)-1-dimethylamino-ethyl)-2-hydroxy-10,13-dimethyl-3-((E)-2-methyl-but-2-enoylamino)-2,3,4,5,6,7,8,9,10,11,12,13,16,17-tetradecahydro-1H-cyclopenta[a]phenanthren-4-yl ester]	4.42	4.58
C[C@@H]([C@H]1CC[C@H]2[C@@H]3CC[C@H]4C[C@@H](NC(=O)c5ccccc5)[C@@H](O)C[C@]4(C)[C@H]3CC[C@]12C)N(C)C [N-[(2S,3R,5S,8R,9S,10S,13S,14S,17S)-17-(1-Dimethylamino-ethyl)-2-hydroxy-10-methyl-13-(S)-methyl-hexadecahydro-cyclopenta[a]phenanthren-3-yl]-benzamide]	4.54	4.79
CC(=O)O[C@H]1[C@@H](NC(=O)c2ccccc2)[C@@H](O)C[C@]2(C)[C@H]3CC[C@]4(C)[C@@H]([C@H](C)N(C)C)CC[C@H]4[C@@H]3CC[C@@H]12 [Acetic acid (2S,3S,4R,5R,8S,9S,10R,13S,14S,17S)-3-benzoylamino-17-(1-dimethylamino-ethyl)-2-hydroxy-10-methyl-13-(S)-methyl-hexadecahydro-cyclopenta[a]phenanthren-4-yl ester]	4.74	4.69
C/C=C(\C)C(=O)NC1C=C2CC[C@@H]3[C@H](CC[C@]4(C)C([C@H](C)N(C)C)=CC[C@@H]34)[C@@]2(C)C[C@H]1O (stereo partly drawn) [1N-[14-[1-dimethylamino-(1S)-ethyl]-4-hydroxy-2,15-dimethyl-(1S,2R,4R,5R,10S,11S,15S)-tetracyclo[8.7.0.02,7.011,15]heptadeca-6,13-dien-5-yl]-2-methyl-(E)-2-butenamide]	4.62	
C/C=C(\C)C(=O)N[C@H]1CC[C@@]2(C)C(=CC[C@H]3C4=CC[C@H]([C@H](C)N(C)C)[C@@]4(C)CC[C@@H]32)C1=O [(E)-2-Methyl-but-2-enoic acid [(3S,8R,9S,10R,13R,17S)-17-((S)-1-dimethylamino-ethyl)-10,13-dimethyl-4-oxo-2,3,4,7,8,9,10,11,12,13,16,17-dodecahydro-1H-cyclopenta[a]phenanthren-3-yl]-amide]	5.37	5.80
C/C=C(\C)C(=O)N[C@H]1CC[C@@]2(C)C(=CC[C@H]3[C@@H]4CC[C@H]([C@H](C)N(C)C)[C@@]4(C)CC[C@@H]32)C1=O [(E)-2-Methyl-but-2-enoic acid [(3S,8S,9S,10R,13S,14S,17S)-17-((S)-1-dimethylamino-ethyl)-10,13-dimethyl-4-oxo-2,3,4,7,8,9,10,11,12,13,14,15,16,17-tetradecahydro-1H-cyclopenta[a]phenanthren-3-yl]-amide]	5.68	5.51
C/C(=C\C(=O)N(C)[C@H]1CC[C@@]2(C)[C@@H](CC[C@@H]3[C@@H]2CC[C@]2(C)C([C@H](C)N(C)C)=CC[C@@H]32)C1)C(C)C [1N-[14-(1-dimethylaminoethyl)-2,15-dimethyl-(1S,7S,10R,11S)-tetracyclo[8.7.0.02,7.011,15]heptadec-13-en-5-yl]-1N,3,4-trimethyl-(E)-2-pentenamide]	5.44	5.04
C[C@@H]([C@H]1CC[C@H]2[C@@H]3CC[C@H]4C[C@@H](N(C)C(=O)/C=C/c5ccccc5)CC[C@]4(C)[C@H]3CC[C@]12C)N(C)C [(E)-N-[(3S,5S,8R,9S,10S,13S,14S,17S)-17-((S)-1-Dimethylamino-ethyl)-10,13-dimethyl-hexadecahydro-cyclopenta[a]phenanthren-3-yl]-N-methyl-3-phenyl-acrylamide]	5.32	5.18
CC(=O)N[C@H]1CC[C@@]2(C)[C@@H](CC[C@@H]3[C@@H]2CC[C@]2(C)[C@@H]([C@H](C)N(C)C)CC[C@@H]32)C1 [N-[(3S,5S,8R,9S,10S,13S,14S,17S)-17-((S)-1-Dimethylamino-ethyl)-10,13-dimethyl-hexadecahydro-cyclopenta[a]phenanthren-3-yl]-acetamide]	4.99	5.12
C/C(=C\C(=O)N[C@H]1CC[C@@]2(C)[C@@H](CC[C@@H]3[C@@H]2CC[C@]2(C)[C@@H]([C@H](C)N(C)C)CC[C@@H]32)C1)C(C)C [3,4-Dimethyl-pent-2-enoic acid [(3S,5S,8R,9S,10S,13S,14S,17S)-17-(1-dimethylamino-ethyl)-10-methyl-13-(S)-methyl-hexadecahydro-cyclopenta[a]phenanthren-3-yl]-amide]	5.33	5.49
C[C@@H]([C@H]1CC[C@H]2[C@@H]3CC[C@H]4C(=O)C(NC(=O)c5ccccc5)=CC[C@]4(C)[C@H]3CC[C@]12C)N(C)C [N-[(5R,8S,9S,10R,13S,14S,17S)-17-((S)-1-Dimethylamino-ethyl)-10,13-dimethyl-4-oxo-4,5,6,7,8,9,10,11,12,13,14,15,16,17-tetradecahydro-1H-cyclopenta[a]phenanthren-3-yl]-benzamide]	5.60	5.67
CC(=O)O[C@H]1[C@@H](NC(=O)C=C(C)C)CC[C@]2(C)[C@H]3CC[C@]4(C)[C@@H]([C@H](C)N(C)C)CC[C@H]4[C@@H]3CC[C@@H]12 [Acetic acid (1S,6R,7R,10R,11S,12S,15S,16S)-17-((S)-1-dimethylamino-ethyl)-10,13-dimethyl-3-(3-methyl-but-2-enoylamino)-hexadecahydro-cyclopenta[a]phenanthren-4-yl ester]	5.64	5.59
